From patent US11590116B2 (THERAVANCE BIOPHARMA R&D IP, LLC, priority 2019, dated 2023)

Tests used:
[1] = biological target: T1, recombinant human ALK5 (TGF-βR1) protein (Homo sapiens, UniProt P36897); experiment: Biochemical ALK5 (TGF-βR1) assay to measure pKi (LANCE Ultra ULight kinase assay); settings: apparent pKi from pIC50 by Cheng-Prusoff, read-out: ALK5 pKi (converted)
T1 construct: purchased Life Technologies PR9075A
T1 sequence (P36897 34-503): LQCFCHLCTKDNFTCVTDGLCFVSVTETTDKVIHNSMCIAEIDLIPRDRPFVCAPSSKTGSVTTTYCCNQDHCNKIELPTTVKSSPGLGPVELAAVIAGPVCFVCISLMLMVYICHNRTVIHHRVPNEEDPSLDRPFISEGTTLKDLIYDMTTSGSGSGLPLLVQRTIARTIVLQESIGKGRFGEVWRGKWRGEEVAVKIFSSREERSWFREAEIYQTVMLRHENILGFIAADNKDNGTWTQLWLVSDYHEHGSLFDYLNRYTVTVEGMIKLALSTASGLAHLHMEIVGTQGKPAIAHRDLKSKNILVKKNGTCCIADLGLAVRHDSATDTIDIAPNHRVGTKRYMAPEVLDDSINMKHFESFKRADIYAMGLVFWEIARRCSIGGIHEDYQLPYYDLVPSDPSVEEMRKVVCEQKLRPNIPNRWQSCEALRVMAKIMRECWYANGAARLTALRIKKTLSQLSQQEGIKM
Summary of the method: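 Compounds (10 μM to 25 pM) preincubated 60 minutes at room temperature with enzyme, then reaction run 60 minutes at 37° C with ATP added as 125 μM (5× final). Stopped with EDTA plus Eu-anti-phospho-Topoisomerase 2-alpha (Thr1342) antibody, TR-FRET read at 665 nm; pIC50 converted to pKi via Cheng-Prusoff.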

[2] = tested on: TGF-β-stimulated SMAD3 phosphorylation in BEAS-2B cells; experiment: Cellular ALK5 potency assay, inhibition of TGF-β stimulated pSMAD3 formation in BEAS-2B cells; type: cell-based; settings: Homo sapiens; inhibition of TGF-β stimulated pSMAD3 formation, BEAS-2B cells; read-out: BEAS2B pIC50 (converted)
Summary of the method: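 Cells seeded overnight; rinse with supplemented HBSS; compound 1 h at 37 °C; TGF-β 10 ng/mL final, 30 min; lyse; AlphaLISA acceptor and detector beads 2 h apart, read next day. Potency expressed as pIC50.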

Structure (SMILES) | Ki [1] | IC50 [2]
Cc1cccc(-c2[nH]cnc2-c2ccc3ncc(NC(=O)C4CC(N)C4)cc3c2)n1 (stereo not shown) [Compound 3, 3-amino-N-[6-[5-(6-methyl-2-pyridyl)-1H-imidazol-4-yl]-3-quinolyl]cyclobutanecarboxamide] | 0.0398 to 0.316 nM | 200 to 1260 nM
Cc1cccc(-c2n[nH]cc2-c2ccc3ncc(-c4nnn5c4NCC5)cc3n2)n1 [Compound 5, 7-(5,6-dihydro-4H-imidazo[1,2-c]triazol-3-yl)-2-[3-(6-methyl-2-pyridyl)-1H-pyrazol-4-yl]-1,5-naphthyridine] | < 0.0316 nM | 25.1 to 158 nM
Cc1cccc(-c2[nH]cnc2-c2ccc3ncc(N(C)CC4CNC4)cc3c2)n1 [Compound 6, N-(azetidin-3-ylmethyl)-N-methyl-6-[5-(6-methyl-2-pyridyl)-1H-imidazol-4-yl]quinolin-3-amine] | 0.0398 to 0.316 nM | 25.1 to 158 nM
Cc1nc(-c2n[nH]cc2-c2ccc3ncc(-c4[nH]nc5c4CCNC5)cc3n2)ccc1F [Compound 7, 2-[3-(5-fluoro-6-methyl-2-pyridyl)-1H-pyrazol-4-yl]-7-(4,5,6,7-tetrahydro-2H-pyrazolo[3,4-c]pyridin-3-yl)-1,5-naphthyridine] | 0.0398 to 0.316 nM | 200 to 1260 nM
Cc1cccc(-c2[nH]cnc2-c2ccc3ncc(C4=C[C@@H](C)N[C@H](C)C4)cc3c2)n1 [Compound 8, 3-[(2R,6R)-2,6-dimethyl-1,2,3,6-tetrahydropyridin-4-yl]-6-[5-(6-methyl-2-pyridyl)-1H-imidazol-4-yl]quinoline] | 0.0398 to 0.316 nM | 25.1 to 158 nM
Cc1cccc(-c2n[nH]cc2-c2ccc3ncc(-c4ccnc(C#N)c4)cc3n2)n1 [Compound 9, 4-[6-[3-(6-methyl-2-pyridyl)-1H-pyrazol-4-yl]-1,5-naphthyridin-3-yl]pyridine-2-carbonitrile] | < 0.0316 nM | < 20 nM
Cc1cccc(-c2n[nH]cc2-c2ccc3ncc(N4CCC5(CCNC5)C4)cc3n2)n1 (stereo not shown) [Compound 10, 7-(2,7-diazaspiro[4.4]nonan-2-yl)-2-[3-(6-methyl-2-pyridyl)-1H-pyrazol-4-yl]-1,5-naphthyridine] | 0.0398 to 0.316 nM | 200 to 1260 nM
Cc1cccc(-c2[nH]cnc2-c2ccc3ncc(NCC4CNC4)cc3c2)n1 [Compound 11, N-(azetidin-3-ylmethyl)-6-[5-(6-methyl-2-pyridyl)-1H-imidazol-4-yl]quinolin-3-amine] | 0.0398 to 0.316 nM | 25.1 to 158 nM
Cc1cccc(-c2n[nH]cc2-c2ccc3ncc(-c4cccn(C)c4=O)cc3n2)n1 [Compound 12, 1-methyl-3-[6-[3-(6-methyl-2-pyridyl)-1H-pyrazol-4-yl]-1,5-naphthyridin-3-yl]pyridin-2-one] | < 0.0316 nM | < 20 nM
Cc1cccc(-c2[nH]cnc2-c2ccc3ncc(N4CC[C@@H](N)C4)cc3c2)n1 [Compound 13, (3R)-1-[6-[5-(6-methyl-2-pyridyl)-1H-imidazol-4-yl]-3-quinolyl]pyrrolidin-3-amine] | 0.0398 to 0.316 nM | < 20 nM
Cc1cccc(-c2[nH]cnc2-c2ccc3ncc(NC4CCC5(CC4)CNC5)cc3c2)n1 [Compound 14, N-(2-azaspiro[3.5]nonan-7-yl)-6-[5-(6-methyl-2-pyridyl)-1H-imidazol-4-yl]quinolin-3-amine] | 0.0398 to 0.316 nM | 200 to 1260 nM
Cc1cccc(-c2n[nH]cc2-c2ccc3ncc(C4=CCNCC4)cc3n2)n1 [Compound 15, 2-[3-(6-methyl-2-pyridyl)-1H-pyrazol-4-yl]-7-(1,2,3,6-tetrahydropyridin-4-yl)-1,5-naphthyridine] | < 0.0316 nM | < 20 nM
Cc1cccc(-c2[nH]cnc2-c2ccc3ncc(C4=CCN(C)C4)cc3c2)n1 [Compound 16, 3-(1-methyl-2,5-dihydropyrrol-3-yl)-6-[5-(6-methyl-2-pyridyl)-1H-imidazol-4-yl]quinoline] | < 0.0316 nM | < 20 nM
CNCCn1cc(-c2cnc3ccc(-c4nc[nH]c4-c4cccc(C)n4)cc3c2)cn1 [Compound 17, N-methyl-2-(4-(6-(5-(6-methylpyridin-2-yl)-1H-imidazol-4-yl)quinolin-3-yl)-1H-pyrazol-1-yl)ethan-1-amine] | < 0.0316 nM | 25.1 to 158 nM
CNCCN(C)C1CCN(c2cnc3ccc(-c4c[nH]nc4-c4cccc(C)n4)nc3c2)CC1 [Compound 18, N,N′-dimethyl-N′-[1-[6-[3-(6-methyl-2-pyridyl)-1H-pyrazol-4-yl]-1,5-naphthyridin-3-yl]-4-piperidyl]ethane-1,2-diamine] | 0.0398 to 0.316 nM | 200 to 1260 nM
Cc1cccc(-c2n[nH]cc2-c2ccc3ncc(N4CCN(C(C)C)C(C)(C)C4)cc3n2)n1 [Compound 20, 7-(4-isopropyl-3,3-dimethyl-piperazin-1-yl)-2-[3-(6-methyl-2-pyridyl)-1H-pyrazol-4-yl]-1,5-naphthyridine] | 3.98 to 31.6 nM | 200 to 1260 nM
Cc1cccc(-c2n[nH]cc2-c2ccc3ncc(C4=CCC(N)CC4)cc3n2)n1 (stereo not shown) [Compound 21, 4-[6-[3-(6-methyl-2-pyridyl)-1H-pyrazol-4-yl]-1,5-naphthyridin-3-yl]cyclohex-3-en-1-amine] | < 0.0316 nM | 25.1 to 158 nM
Cc1cccc(-c2n[nH]cc2-c2ccc3ncc(N4CCCCC4)cc3n2)n1 [Compound 22, 2-[3-(6-methyl-2-pyridyl)-1H-pyrazol-4-yl]-7-(1-piperidyl)-1,5-naphthyridine] | 0.0398 to 0.316 nM | 25.1 to 158 nM
Cc1cccc(-c2nc3ccccn3c2-c2ccc3ncc(-c4cnc5n4CCN5)cc3n2)n1 [Compound 23, 7-(6,7-dihydro-5H-imidazo[1,2-a]imidazol-3-yl)-2-[2-(6-methyl-2-pyridyl)imidazo[1,2-a]pyridin-3-yl]-1,5-naphthyridine] | < 0.0316 nM | 25.1 to 158 nM
Cc1cccc(-c2[nH]cnc2-c2ccc3ncc(N4CCNC(CC(=O)OC(C)C)C4)cc3c2)n1 (stereo not shown) [Compound 24, isopropyl 2-[4-[6-[5-(6-methyl-2-pyridyl)-1H-imidazol-4-yl]-3-quinolyl]piperazin-2-yl]acetate] | 0.0398 to 0.316 nM | 25.1 to 158 nM
CC(=O)NC1CC=C(c2cnc3ccc(-c4nc[nH]c4-c4cccc(C)n4)cc3c2)CC1 (stereo not shown) [Compound 26, N-[4-[6-[5-(6-methyl-2-pyridyl)-1H-imidazol-4-yl]-3-quinolyl]cyclohex-3-en-1-yl]acetamide] | < 0.0316 nM | < 20 nM
Cc1cccc(-c2nnn(Cc3ccccc3)c2-c2ccc3ncc(-c4cnn(C5CCCNC5)c4)cc3c2)n1 (stereo not shown) [Compound 27, 6-[3-benzyl-5-(6-methyl-2-pyridyl)triazol-4-yl]-3-[1-(3-piperidyl)pyrazol-4-yl]quinoline] | 0.0398 to 0.316 nM | 25.1 to 158 nM
Cc1cccc(-c2n[nH]cc2-c2ccc3ncc(N4CC(C)NC(C)C4)cc3n2)n1 (stereo not shown) [Compound 28, 7-(3,5-dimethylpiperazin-1-yl)-2-[3-(6-methyl-2-pyridyl)-1H-pyrazol-4-yl]-1,5-naphthyridine] | < 0.0316 nM | 25.1 to 158 nM
CNCCn1cc(-c2cnc3ccc(-c4nn[nH]c4-c4cccc(C)n4)nc3c2)cn1 [Compound 29, N-methyl-2-(4-(6-(5-(6-methylpyridin-2-yl)-1H-1,2,3-triazol-4-yl)-1,5-naphthyridin-3-yl)-1H-pyrazol-1-yl)ethan-1-amine] | < 0.0316 nM | 200 to 1260 nM
Cc1cccc(-c2[nH]cnc2-c2ccc3ncc(NCCN4CCCC4)cc3c2)n1 [Compound 30, 6-[5-(6-methyl-2-pyridyl)-1H-imidazol-4-yl]-N-(2-pyrrolidin-1-ylethyl)quinolin-3-amine] | 0.0398 to 0.316 nM | 25.1 to 158 nM
Cc1cccc(-c2n[nH]cc2-c2ccc3ncc(NCCN4CCCC4(C)C)cc3n2)n1 [Compound 31, N-[2-(2,2-dimethylpyrrolidin-1-yl)ethyl]-6-[3-(6-methyl-2-pyridyl)-1H-pyrazol-4-yl]-1,5-naphthyridin-3-amine] | < 0.0316 nM | 25.1 to 158 nM
Cc1cccc(-c2n[nH]cc2-c2ccc3ncc(-c4nc(CO)co4)cc3n2)n1 [Compound 32, [2-[6-[3-(6-methyl-2-pyridyl)-1H-pyrazol-4-yl]-1,5-naphthyridin-3-yl]oxazol-4-yl]methanol] | < 0.0316 nM | 25.1 to 158 nM
COc1[nH]nc(-c2cccc(C)n2)c1-c1ccc2ncc(N3CCNCC3)cc2n1 [Compound 33, 2-(5-methoxy-3-(6-methylpyridin-2-yl)-1H-pyrazol-4-yl)-7-(piperazin-1-yl)-1,5-naphthyridine] | 0.0398 to 0.316 nM | 25.1 to 158 nM
Cc1nc(-c2n[nH]cc2-c2ccc3ncc(-c4ccc5c(n4)CCNC5)cc3n2)ccc1F [Compound 34, 2-[3-(5-fluoro-6-methyl-2-pyridyl)-1H-pyrazol-4-yl]-7-(5,6,7,8-tetrahydro-1,6-naphthyridin-2-yl)-1,5-naphthyridine] | < 0.0316 nM | 25.1 to 158 nM
